Assay results published in US20240335385A1, “IONIZABLE AMINE LIPIDS AND LIPID NANOPARTICLES” (Beam Therapeutics Inc., priority 2021, published 2024).

Key:
[1] = test system: spleen; assay: LNP biodistribution screen, barcode fold above input (FAI) in spleen; assay type: in vivo; conditions: mice, tissues 4 hours post-dose
Method: (§1) Male and female mice aged approximately 8-12 weeks were used for studies described by the present Example. Each mouse was temporarily restrained and pooled LNP was administered IV via tail vein injection in up to five animals per experiment. Age-matched mice was also used to administer vehicle (1×TBS) via tail vein injection in up to three animals per experiment. Additional routes of administration can also be conducted including intracerebral ventricular (ICV), intracisterna manga (ICM), intrathecal (IT), intramuscular (IM), nebulization, intranasal (IN), subcutaneous (SC), intraarticular, and intradermal (ID). At 4 hours post-dose, tissues including liver, spleen, bone marrow, testes, gastrocnemius, quadricep, lung, heart, kidney, and pancreas may be collected for analysis.
(§2) Liver, kidney, lung, and muscle (e.g. skeletal and cardiac) tissues may be mechanically, and then enzymatically digested using a mixture of proteinases, then passed through a 70 μm filter to generate single cell suspensions. Spleen tissues were mechanically digested to generate single cell suspensions. Tissues were treated with ACK buffer to lyse red blood cells, and then stained with fluorescently-labeled antibodies for flow cytometry and fluorescence-activated cell sorting (FACS). Commercially available antibodies were used in the present example. Using a BD FACSMelody (Becton Dickinson), samples were acquired via flow cytometry to generate gates prior to sorting. In general, the gating structure was size→singlet cells→live cells→cells of interest. T cells were defined as CD45+CD3+, monocytes are defined as CD45+CD11b+, and B cells are defined as CD45+CD19+. Endothelial cells were defined as CD31+, monocytes and Kupffer cells as CD45+CD11b+ and hepatocytes and myocytes were defined as CD31−/CD45− in the liver and muscle, respectively. Tissues from vehicle-dosed mice were used to set the gates for sorting.
(§3) RNA from tissues were extracted using the Reliaprep RNA extraction kit, and libraries were prepared using the RNAseq kit, and sequenced on either a MiSeq or NextSeq500.
(§4) To screen for preferential LNP delivery to a target tissues, the relative abundance of each barcode in one or more target tissues was measured and compared to the relative abundance of each barcode to its corresponding relative input abundance to determine fold above input (FAI) for each barcode. If the FAI of a barcode in a target tissue is above a threshold or above the FAI of a different LNP in the same tissue, the LNP can be identified as preferentially delivering to the target tissue.
(§5) The FAI is the normalized relative abundance of a barcode in a selected sample as compared to its frequency in the input. The FAI of a barcode indicates how a LNP's abundance changes relative to the rest of the LNP pool. The FAI value of the barcode was calculated by normalizing the relative abundance in the barcode sequence counts in the isolated samples to its relative abundance in the administration input. […] The FAI then indicates the performance of an LNP relative to the input LNP composition.
(§6) Each table describes data obtained from one screening experiment.

[2] = RNA encapsulation efficiency of LNPs by Ribogreen assay; assay type: physicochemical; conditions: LNP of 47.5% Ionizable Lipid:40% cholesterol:2.5% PEG-2000 DMG:10% DPSC, N/P ratio 4-8
Method: (§7) LNPs were prepared with 47.5% Ionizable Lipid (e.g., a compound provided herein):40% cholesterol:2.5% PEG-2000 DMG:10% DPSC and an N/P ratio range of 4-8. LNPs were formed by microfluidic mixing of the lipid and NA solutions using a Precision Nanosystems NanoAssemblr Spark or Benchtop series Instruments, according to the manufacturer's protocol. A ratio of aqueous to organic solvent of approximately 2:1 or 3:1 was maintained during mixing using differential flow rates. After mixing, LNPs were collected, diluted in phosphate buffer saline (PBS) or Tris-buffered saline (TBS) (approximately 1:1 v/v). Further buffer exchange was conducted using dialysis in PBS or TBS at 4° C. for 4 to 24 hours against a 20 kDa filter. After this initial dialysis, each individual LNP preparation was characterized via dynamic light scattering (DLS) to measure the size (e.g., diameter) and polydispersity. LNPs falling within specific diameter and polydispersity ranges were pooled, and further dialyzed against PBS or TBS at 4° C. for 1 to 4 hours against a 100 kDa dialysis cassette. After the second dialysis, LNPs were sterile filtered using 0.22 μm filter and stored at 4° C. for further use.
RNA concentration and encapsulation efficiency were determined by Ribogreen assay (BioTek Synergy LX plate reader).

[3] = test system: liver; assay: LNP biodistribution screen, barcode fold above input (FAI) in liver; assay type: in vivo; conditions: mice, tissues 4 hours post-dose
Method: as §1
Liver, kidney, lung, and muscle (e.g. skeletal and cardiac) tissues may be mechanically, and then enzymatically digested using a mixture of proteinases, then passed through a 70 μm filter to generate single cell suspensions. Spleen tissues were mechanically digested to generate single cell suspensions. Tissues were treated with ACK buffer to lyse red blood cells, and then stained with fluorescently-labeled antibodies for flow cytometry and fluorescence-activated cell sorting (FACS). Commercially available antibodies were used in the present example. Using a BD FACSMelody (Becton Dickinson), samples were acquired via flow cytometry to generate gates prior to sorting. […]
To screen for preferential LNP delivery to a target tissues, the relative abundance of each barcode in one or more target tissues was measured and compared to the relative abundance of each barcode to its corresponding relative input abundance to determine fold above input (FAI) for each barcode. […]
The FAI is the normalized relative abundance of a barcode in a selected sample as compared to its frequency in the input. […] The FAI value of the barcode was calculated by normalizing the relative abundance in the barcode sequence counts in the isolated samples to its relative abundance in the administration input. […]

[4] = test system: lung; assay: LNP biodistribution screen, barcode fold above input (FAI) in lung; assay type: in vivo; conditions: mice, tissues 4 hours post-dose
Method: as §1, §2, §3, §4, §5, §6

[5] = LNP hydrodynamic diameter and polydispersity index by dynamic light scattering (DLS); assay type: physicochemical; conditions: LNP of 47.5% Ionizable Lipid:40% cholesterol:2.5% PEG-2000 DMG:10% DPSC, N/P ratio 4-8
Method: as §7
LNP hydrodynamic diameter and polydispersity index (PDI) were measured using high throughput dynamic light scattering (DLS) (Stunner, Unchained Labs). LNPs were diluted 1×TBS or PBS to an appropriate concentration and analyzed.

[6] = screening experiment of Table 3, pooled LNP IV tail vein
[7] = screening experiment of Table 5, pooled LNP IV tail vein
[8] = screening experiment of Table 4, pooled LNP IV tail vein

| Compound | Mean Encapsulation Efficiency (%) [2] [%] | Mean Diameter (nm) [5] [nm] | Mean PDI [5] | also measured |
| --- | --- | --- | --- | --- |
| 5-((4,4-bis(((Z)-oct-5-en-1-yl)oxy)butanoyl)oxy)-3-((4-(pyrrolidin-1-yl)butanoyl)oxy)pentyl (9Z,12Z)-octadeca-9,12-dienoate [Example 7-5] | 86.8 | 93.1 | 0.13 | FAI (Spleen) [1, 6]: 1.29; FAI (Spleen) [1, 7]: 1.33; FAI (Liver) [3, 6]: 2.28; FAI (Lung) [4, 6]: 1.30; FAI (Lung) [4, 7]: 0.83 |
| CC/C=C\CCCCOC(CCC(=O)OCCC(CCOC(=O)CCCCCCC/C=C\C/C=C\CCCCC)OC(=O)OCCCN(C)CC)OCCCC/C=C\CC (stereo not shown) [Example 7-3, 5-((4,4-bis(((Z)-oct-5-en-1-yl)oxy)butanoyl)oxy)-3-(((3-(ethyl(methyl)amino)propoxy)carbonyl)oxy)pentyl (9Z,12Z)-octadeca-9,12-dienoate] | 86.7 | 91.0 | 0.13 | – |
| CC/C=C\CCCCOC(CCC(=O)OCCC(CCOC(=O)CCC(OCCCC/C=C\CC)OCCCC/C=C\CC)OC(=O)OCCCN(C)CC)OCCCC/C=C\CC [Example 7-8, 3-(((3-(ethyl(methyl)amino)propoxy)carbonyl)oxy)pentane-1,5-diyl bis(4,4-bis(((Z)-oct-5-en-1-yl)oxy)butanoate)] | 89.9 | 110.4 | 0.09 | – |
| CCCCC/C=C\C/C=C\CCCCCCCC(=O)OCCC(CCOC(=O)CCC(OCCCCCCCC)OCCCCCCCC)OC(=O)OCC1CCCN(CC)C1 (stereo not shown) [Example 7-11, 5-((4,4-bis(octyloxy)butanoyl)oxy)-3-((((1-ethylpiperidin-3-yl)methoxy)carbonyl)oxy)pentyl (9Z,12Z)-octadeca-9,12-dienoate] | 86.3 | 76.5 | 0.13 | – |
| CCCCC/C=C\C/C=C\CCCCCCCC(=O)OCCC(CCOC(=O)CCC(OCCCCCCCC)OCCCCCCCC)OC(=O)OCCCN(CC)CC (stereo not shown) [Example 7-12, 5-((4,4-bis(octyloxy)butanoyl)oxy)-3-(((3-(diethylamino)propoxy)carbonyl)oxy)pentyl (9Z,12Z)-octadeca-9,12-dienoate] | 86.5 | 85.0 | 0.16 | – |
| CCCCC/C=C\C/C=C\CCCCCCCC(=O)OCCC(CCOC(=O)CCC(OCCCCCCCC)OCCCCCCCC)OC(=O)CCCN1CCCC1 (stereo not shown) [Example 7-15, 5-((4,4-bis(octyloxy)butanoyl)oxy)-3-((4-(pyrrolidin-1-yl)butanoyl)oxy)pentyl (9Z,12Z)-octadeca-9,12-dienoate] | 87.0 | 80.8 | 0.16 | – |
| CCCCCCCCOC(CCC(=O)OCCC(CCOC(=O)CCC(OCCCCCCCC)OCCCCCCCC)OC(=O)OCC1CCCN(CC)C1)OCCCCCCCC (stereo not shown) [Example 7-16, 3-((((1-ethylpiperidin-3-yl)methoxy)carbonyl)oxy)pentane-1,5-diyl bis(4,4-bis(octyloxy)butanoate)] | 72.6 | 80.0 | 0.16 | – |
| CCCCC/C=C\C/C=C\CCCCCCCCC(CCCCCCCC/C=C\C/C=C\CCCCC)OC(=O)CCCN(C)C [MC3, (6Z,9Z,28Z,31Z)-heptatriaconta-6,9,28,31-tetraen-19-yl 4-(dimethylamino) butanoate] | – | – | – | FAI (Spleen) [1, 6]: 1.32; FAI (Spleen) [1, 8]: 0.45; FAI (Spleen) [1, 7]: 0.39; FAI (Liver) [3, 6]: 0.80; FAI (Liver) [3, 8]: 0.31; FAI (Lung) [4, 6]: 1.09; FAI (Lung) [4, 8]: 0.65; FAI (Lung) [4, 7]: 0.50 |

Now from value to compound, other results behind:

| Mean Encapsulation Efficiency (%) [2] [%] | Mean Diameter (nm) [5] [nm] | Mean PDI [5] | Compound | also measured |
| --- | --- | --- | --- | --- |
| 87.2 | 96.4 | 0.12 | CC/C=C\CCCCOC(CCC(=O)OCCC(CCOC(=O)CCCCCCC/C=C\C/C=C\CCCCC)OC(=O)OCCCN(CC)CC)OCCCC/C=C\CC (stereo not shown) [Example 7-2, 5-((4,4-bis(((Z)-oct-5-en-1-yl)oxy)butanoyl)oxy)-3-(((3-(diethylamino)propoxy)carbonyl)oxy)pentyl (9Z,12Z)-octadeca-9,12-dienoate] | – |
| 86.3 | 88.8 | 0.13 | CC/C=C\CCCCOC(CCC(=O)OCCC(CCOC(=O)CCCCCCC/C=C\C/C=C\CCCCC)OC(=O)OCCCN(C)C)OCCCC/C=C\CC (stereo not shown) [Example 7-4, 5-((4,4-bis(((Z)-oct-5-en-1-yl)oxy)butanoyl)oxy)-3-(((3-(dimethylamino)propoxy)carbonyl)oxy)pentyl (9Z,12Z)-octadeca-9,12-dienoate] | – |
| 91.3 | 99.7 | 0.17 | CC/C=C\CCCCOC(CCC(=O)OCCC(CCOC(=O)CCC(OCCCC/C=C\CC)OCCCC/C=C\CC)OC(=O)OCCCN(CC)CC)OCCCC/C=C\CC [Example 7-7, 3-(((3-(diethylamino)propoxy)carbonyl)oxy)pentane-1,5-diyl bis(4,4-bis(((Z)-oct-5-en-1-yl)oxy)butanoate)] | – |
| 89.0 | 92.9 | 0.13 | CC/C=C\CCCCOC(CCC(=O)OCCC(CCOC(=O)CCC(OCCCC/C=C\CC)OCCCC/C=C\CC)OC(=O)OCCCN(C)C)OCCCC/C=C\CC [Example 7-9, 3-(((3-(dimethylamino)propoxy)carbonyl)oxy)pentane-1,5-diyl bis(4,4-bis(((Z)-oct-5-en-1-yl)oxy)butanoate)] | – |
| 86.1 | 86.0 | 0.15 | CCCCC/C=C\C/C=C\CCCCCCCC(=O)OCCC(CCOC(=O)CCC(OCCCCCCCC)OCCCCCCCC)OC(=O)OCCCN(C)CC (stereo not shown) [Example 7-13, 5-((4,4-bis(octyloxy)butanoyl)oxy)-3-(((3-(ethyl(methyl)amino)propoxy)carbonyl)oxy)pentyl (9Z,12Z)-octadeca-9,12-dienoate] | – |
| 87.2 | 84.3 | 0.18 | CCCCC/C=C\C/C=C\CCCCCCCC(=O)OCCC(CCOC(=O)CCC(OCCCCCCCC)OCCCCCCCC)OC(=O)OCCCN(C)C (stereo not shown) [Example 7-14, 5-((4,4-bis(octyloxy)butanoyl)oxy)-3-(((3-(dimethylamino)propoxy)carbonyl)oxy)pentyl (9Z,12Z)-octadeca-9,12-dienoate] | – |
| 90.0 | 76.7 | 0.16 | CCCCCCCCOC(CCC(=O)OCCC(CCOC(=O)CCC(OCCCCCCCC)OCCCCCCCC)OC(=O)OCCCN(C)CC)OCCCCCCCC [Example 7-18, 3-(((3-(ethyl(methyl)amino)propoxy)carbonyl)oxy)pentane-1,5-diyl bis(4,4-bis(octyloxy)butanoate)] | – |
| 85.1 | 94.4 | 0.12 | CC/C=C\CCCCOC(CCC(=O)OCCCCC(CCCCOC(=O)CCC(OCCCC/C=C\CC)OCCCC/C=C\CC)OC(=O)OCC1CCCN(CC)C1)OCCCC/C=C\CC (stereo not shown) [Example 7-34, 5-((((1-ethylpiperidin-3-yl)methoxy)carbonyl)oxy)nonane-1,9-diyl bis(4,4-bis(((Z)-oct-5-en-1-yl)oxy)butanoate)] | – |
